From PubChem BioAssay AID256 (DTP/NCI, 2004)
Several values for one entry are separate records, joined by “and”; a condition that tells them apart may be missing. Equal entries are not always repeated. Toxic doses and inconclusive results are not listed. How the source made its calls: active means survival T/C of 150% or more; inactive means T/C below 125% in these data.

Tested on: CD2F1 mice, L1210 leukemia ip, survival T/C
Experiment: NCI In Vivo Anticancer Drug Screen. Data for tumor model L1210 Leukemia (intraperitoneal) in CD2F1 (CDF1) mice
Settings: higher = longer survival
Procedure, shortened: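 Compound-dosed mice with transplantable tumor versus matched vehicle controls; endpoint ratio T/C reported.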

[1] = endpoint: mean survival time, dose: 0.39 mg/kg/injection, schedule: Q01DX009 (ip), vehicle: saline
[2] = endpoint: mean survival time, dose: 0.78 mg/kg/injection, schedule: Q01DX009 (ip), vehicle: saline
[3] = endpoint: mean survival time, dose: 100.0 mg/kg/injection, schedule: Q01DX009 (ip), vehicle: saline with Tween-80
[4] = endpoint: mean survival time, dose: 200.0 mg/kg/injection, schedule: Q01DX009 (ip), vehicle: saline with Tween-80
[5] = endpoint: mean survival time, dose: 400.0 mg/kg/injection, schedule: Q01DX009 (ip), vehicle: saline with Tween-80
[6] = endpoint: mean survival time, dose: 100.0 mg/kg/injection, schedule: Q01DX001 (ip), vehicle: saline with Tween-80
[7] = endpoint: mean survival time, dose: 200.0 mg/kg/injection, schedule: Q01DX001 (ip), vehicle: saline with Tween-80
[8] = endpoint: mean survival time, dose: 400.0 mg/kg/injection, schedule: Q01DX001 (ip), vehicle: saline with Tween-80
[9] = endpoint: mean survival time, dose: 100.0 mg/kg/injection, schedule: Q04DX003 (ip), vehicle: saline with Tween-80
[10] = endpoint: mean survival time, dose: 200.0 mg/kg/injection, schedule: Q04DX003 (ip), vehicle: saline with Tween-80
[11] = endpoint: mean survival time, dose: 400.0 mg/kg/injection, schedule: Q04DX003 (ip), vehicle: saline with Tween-80
[12] = endpoint: mean survival time, dose: 100.0 mg/kg/injection, schedule: Q04DX002 (ip), vehicle: saline with Tween-80

Measured: T/C

CO[C@@]12[C@@H]3N[C@@H]3CN1C1=C(C(=O)C(NCCN3CCCC3)=C(C)C1=O)[C@@H]2COC(N)=O
inactive: endpoint: mean survival time, dose: 0.31 mg/kg/injection, schedule: Q01DX005 (ip), vehicle: water 101 % of control | endpoint: mean survival time, dose: 0.62 mg/kg/injection, schedule: Q01DX005 (ip), vehicle: water 101 % of control | endpoint: mean survival time, dose: 1.25 mg/kg/injection, schedule: Q01DX005 (ip), vehicle: water 113 % of control | endpoint: mean survival time, dose: 1.5 mg/kg/injection, schedule: Q01DX001 (ip), vehicle: water 100 % of control | endpoint: mean survival time, dose: 2.5 mg/kg/injection, schedule: Q01DX005 (ip), vehicle: water 120 % of control and 122 % of control | endpoint: mean survival time, dose: 3.0 mg/kg/injection, schedule: Q01DX001 (ip), vehicle: water 94 % of control | endpoint: mean survival time, dose: 6.0 mg/kg/injection, schedule: Q01DX001 (ip), vehicle: water 115 % of control | endpoint: mean survival time, dose: 12.0 mg/kg/injection, schedule: Q01DX001 (ip), vehicle: water 103 % of control

N#C[CH2][Sn]([I])([c]1ccccc1)[c]1ccccc1
inactive: [1] 103 % of control | [2] 100 % of control

COC(=O)Nc1nc2ccc(SC)cc2c(=O)[nH]1
inactive: endpoint: median survival time, dose: 25.0 mg/kg/injection, schedule: Q01DX009 (ip), vehicle: Klucel (hydroxypropylcellulose) (HPC) 98 % of control | endpoint: median survival time, dose: 50.0 mg/kg/injection, schedule: Q01DX009 (ip), vehicle: Klucel (hydroxypropylcellulose) (HPC) 98 % of control | endpoint: median survival time, dose: 100.0 mg/kg/injection, schedule: Q01DX009 (ip), vehicle: Klucel (hydroxypropylcellulose) (HPC) 98 % of control | endpoint: median survival time, dose: 200.0 mg/kg/injection, schedule: Q01DX009 (ip), vehicle: Klucel (hydroxypropylcellulose) (HPC) 112 % of control

O=[N+]([O-])c1cccc(Cc2nncc3ccccc23)c1
inactive: [3] 96 % of control | [4] 94 % of control | [5] 94 % of control

O=C(O)/C=C\SCCCC(=O)O
inactive: [6] 94 % of control | [7] 111 % of control | [8] 103 % of control

C/C(=N\NC(=O)c1ccccc1O)c1cccc(/C(C)=N/NC(=O)c2ccccc2O)n1
inactive: endpoint: median survival time, dose: 3.0 mg/kg/injection, schedule: Q01DX009 (ip), vehicle: saline 101 % of control | endpoint: median survival time, dose: 6.0 mg/kg/injection, schedule: Q01DX009 (ip), vehicle: saline 106 % of control | endpoint: median survival time, dose: 12.0 mg/kg/injection, schedule: Q01DX009 (ip), vehicle: saline 101 % of control | endpoint: median survival time, dose: 25.0 mg/kg/injection, schedule: Q01DX009 (ip), vehicle: saline 93 % of control

Cc1ccc(S(=O)(=O)CN2CCC(=O)c3ccccc32)cc1
inactive: endpoint: mean survival time, dose: 75.0 mg/kg/injection, schedule: Q04DX003 (ip), vehicle: saline 95 % of control | endpoint: mean survival time, dose: 150.0 mg/kg/injection, schedule: Q04DX003 (ip), vehicle: saline 91 % of control | endpoint: mean survival time, dose: 300.0 mg/kg/injection, schedule: Q04DX003 (ip), vehicle: saline 97 % of control

O=C(O)CC(NCc1ccccc1)C(=O)O (stereo unspecified)
inactive: [9] 103 % of control | [10] 100 % of control | [11] 97 % of control

[CH3][Sn]1([CH3])[O]C2C(CO)OC(n3cnc4c(N)ncnc43)C2[O]1 (stereo unspecified)
inactive: endpoint: mean survival time, dose: 12.5 mg/kg/injection, schedule: Q01DX005 (ip), vehicle: other 98 % of control | endpoint: mean survival time, dose: 25.0 mg/kg/injection, schedule: Q01DX005 (ip), vehicle: other 92 % of control | endpoint: mean survival time, dose: 50.0 mg/kg/injection, schedule: Q01DX005 (ip), vehicle: other 97 % of control

Cc1nc(=S)c2ccccc2[nH]1
inactive: endpoint: mean survival time, dose: 100.0 mg/kg/injection, schedule: Q01DX001 (ip), vehicle: Klucel (hydroxypropylcellulose) (HPC) 97 % of control | endpoint: mean survival time, dose: 200.0 mg/kg/injection, schedule: Q01DX001 (ip), vehicle: Klucel (hydroxypropylcellulose) (HPC) 94 % of control | endpoint: mean survival time, dose: 400.0 mg/kg/injection, schedule: Q01DX001 (ip), vehicle: Klucel (hydroxypropylcellulose) (HPC) 100 % of control

O=C(O)c1cnc(Cl)c(Br)c1
inactive: [6] 103 % of control | [9] 97 % of control | [7] 93 % of control | [10] 93 % of control | [8] 98 % of control | [11] 93 % of control

COc1ccc(OCc2ccc(OC)c(OC)c2)cc1
inactive: [12] 91 % of control | endpoint: mean survival time, dose: 200.0 mg/kg/injection, schedule: Q04DX002 (ip), vehicle: saline with Tween-80 87 % of control | endpoint: mean survival time, dose: 400.0 mg/kg/injection, schedule: Q04DX002 (ip), vehicle: saline with Tween-80 91 % of control

c1cc(N2CCCC2)cc(N2CCCC2)c1
inactive: [3] 96 % of control | [9] 102 % of control | [4] 88 % of control | [10] 106 % of control | [5] 88 % of control | [11] 98 % of control

Oc1ccccc1/C=N\N=C\c1ccccc1O
inactive: [6] 97 % of control | [7] 106 % of control | [8] 100 % of control

COc1ccc(OC)c(NC(=O)NNc2ccc([N+](=O)[O-])cc2[N+](=O)[O-])c1
inactive: [3] 88 % of control | [4] 91 % of control

CN1C(=O)C2C3CCC(C)(O3)C2C1=O (stereo unspecified)
inactive: [9] 98 % of control | [10] 96 % of control | [11] 98 % of control

CC1CCCCC1NC(=O)Nc1ccccc1 (stereo unspecified)
inactive: [9] 94 % of control | [10] 92 % of control

S=C1NCCS1
inactive: endpoint: mean survival time, dose: 75.0 mg/kg/injection, schedule: Q01DX009 (ip), vehicle: Klucel (hydroxypropylcellulose) (HPC) 95 % of control | endpoint: mean survival time, dose: 150.0 mg/kg/injection, schedule: Q01DX009 (ip), vehicle: Klucel (hydroxypropylcellulose) (HPC) 96 % of control | endpoint: mean survival time, dose: 300.0 mg/kg/injection, schedule: Q01DX009 (ip), vehicle: Klucel (hydroxypropylcellulose) (HPC) 101 % of control

CC1CC2C3(C1)CC(C(=O)OC3=O)C2(C)C (stereo unspecified)
inactive: endpoint: mean survival time, dose: 75.0 mg/kg/injection, schedule: Q01DX001 (ip), vehicle: other 94 % of control | endpoint: mean survival time, dose: 150.0 mg/kg/injection, schedule: Q01DX001 (ip), vehicle: other 92 % of control | endpoint: mean survival time, dose: 300.0 mg/kg/injection, schedule: Q01DX001 (ip), vehicle: other 92 % of control

[C-]#[O+].[C-]#[O+].[C-]#[O+].[C-]#[O+].[CH3][Sn]([CH3])[CH3].[Co]
inactive: endpoint: mean survival time, dose: 0.02 mg/kg/injection, schedule: Q01DX009 (ip), vehicle: saline 100 % of control | endpoint: mean survival time, dose: 0.04 mg/kg/injection, schedule: Q01DX009 (ip), vehicle: saline 102 % of control | endpoint: mean survival time, dose: 0.09 mg/kg/injection, schedule: Q01DX009 (ip), vehicle: saline 100 % of control and 105 % of control | [1] 86 % of control | [2] 107 % of control

O=[N+]([O-])O.[NH-]C1CCCCC1[NH-].[NH-]C1CCCCC1[NH-].[Ni+2] (stereo unspecified)
inactive: endpoint: mean survival time, dose: 50.0 mg/kg/injection, schedule: Q04DX002 (ip), vehicle: saline with Tween-80 110 % of control | [12] 113 % of control

CCC1CCC(NC(=O)NC)CC1 (stereo unspecified)
inactive: [9] 99 % of control | [10] 92 % of control

Cc1cc(C)c(NC(=O)c2ccccc2Cl)c(C)c1
inactive: [9] 97 % of control | [10] 110 % of control | [11] 97 % of control

O=P(O)(O)OCC1OC(n2cnc3c(NCc4ccco4)ncnc32)C(O)C1O (stereo unspecified)
inactive: endpoint: mean survival time, dose: 12.5 mg/kg/injection, schedule: Q01DX005 (ip), vehicle: water 106 % of control | endpoint: mean survival time, dose: 25.0 mg/kg/injection, schedule: Q01DX005 (ip), vehicle: water 106 % of control | endpoint: mean survival time, dose: 50.0 mg/kg/injection, schedule: Q01DX005 (ip), vehicle: water 103 % of control | endpoint: mean survival time, dose: 100.0 mg/kg/injection, schedule: Q01DX005 (ip), vehicle: water 106 % of control

CC(c1ccccc1)n1cncc1C(=O)O (stereo unspecified)
inactive: [6] 106 % of control | [7] 97 % of control | [8] 95 % of control
